Reference: patent US8084448B2, “Organic compounds” (Novartis AG, priority 2006, dated 2011)
Counter-ions that a name gives are not always drawn.

SMILES | melting point [°C]
O=C(O)COc1ccc(N2CC(=O)NS2(=O)=O)c(O)c1 [Example 296, [3-Hydroxy-4-(1,1,4-trioxo-1,2,5-thiadiazolidin-2-yl)-phenoxy]-acetic Acid] | 185 to 188
O=C1CN(c2ccc(OCCc3ccccc3)cc2O)S(=O)(=O)N1 [Example 55, 5-(2-Hydroxy-4-phenethyloxyphenyl)-1,1-dioxo-1,2,5-thiadiazolidin-3-one] | 65 to 70
COC(=O)c1c(O)cccc1OCCCCNC(=O)CCc1ccc(N2CC(=O)NS2(=O)=O)c(O)c1 [Example 110, 2-Hydroxy-6-(4-{3-[3-hydroxy-4-(1,1,4-trioxo-1,2,5-thiadiazolidin-2-yl)-phenyl]-propionylamino}-butoxy)-benzoic Acid Methyl Ester] | 85 to 90

Results, then the compound that gave them:

melting point [°C] | SMILES
126 to 180 | O=C1CN(c2ccc(S(=O)(=O)c3ccccc3)cc2O)S(=O)(=O)N1 [Example 318, 5-(4-Benzenesulfonyl-2-hydroxyphenyl)-1,1-dioxo-1,2,5-thiadiazolidin-3-one]
230 to 235 | O=C1CN(c2ccc(-c3ccoc3)cc2O)S(=O)(=O)N1 (as salt: potassium) [Example 272, 5-(4-Furan-3-yl-2-hydroxyphenyl)-1,1-dioxo-1,2,5-thiadiazolidin-3-one]
